Laboratory results as given in the Kinase Knowledgebase extract (Sharma et al. 2016).

Molecular target: MAPK14 (human) (UniProt Q16539)
Experiment: Inhibition of MAPK14 Kinase Activity

Sequence of MAPK14 (human) (Q16539 whole entry, looked up): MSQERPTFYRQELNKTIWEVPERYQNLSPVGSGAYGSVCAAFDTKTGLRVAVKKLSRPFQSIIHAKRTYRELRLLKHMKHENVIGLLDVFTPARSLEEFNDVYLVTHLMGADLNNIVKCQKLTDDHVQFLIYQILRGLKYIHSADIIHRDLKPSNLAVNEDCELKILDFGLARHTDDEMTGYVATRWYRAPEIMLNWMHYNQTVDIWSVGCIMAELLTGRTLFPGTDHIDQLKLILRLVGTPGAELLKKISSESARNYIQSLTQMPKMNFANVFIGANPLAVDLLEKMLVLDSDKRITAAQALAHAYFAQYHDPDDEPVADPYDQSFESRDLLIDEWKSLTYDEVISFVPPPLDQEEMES

IC50, ≤ 10 µM:
CCNC(=O)NCc1ccccc1CC1CCC(=O)N(c2c(Cl)cccc2Cl)C1 (stereo not drawn), O=C1CCC(Cc2ccc(F)cc2F)CN1c1c(Cl)csc1Cl (stereo not drawn), CNC1CC(Cl)C(N2CC(Sc3ccc(F)cc3F)CCC2=O)C(Cl)C1 (stereo not drawn), Cc1ccc(SC2CCC(=O)N(c3c(Cl)ccnc3Cl)C2)c(C)c1 (stereo not drawn), O=C1CCC(Cc2ccccc2F)CN1c1c(Cl)cccc1Cl (stereo not drawn), CN1CC(Cc2ccc(Cl)cc2Cl)CN(c2c(Cl)cccc2Cl)C1=O (stereo not drawn), O=C1CCC(Cc2ccc(OC(F)(F)F)cc2)CN1c1c(Cl)cccc1Cl (stereo not drawn), O=C1OCC(Cc2ccc(F)cc2F)CN1c1c(Cl)cc(O)cc1Cl (stereo not drawn), O=C1CCC(Cc2ccc(F)cc2F)CN1c1c(Cl)cc(Br)cc1Cl (stereo not drawn), O=C1CSC(Cc2ccc(F)cc2F)CN1c1c(Cl)cc(CO)cc1Cl (stereo not drawn), O=C1NCC(Cc2ccc(Cl)cc2)CN1c1c(Cl)cccc1Cl (stereo not drawn), O=C1CCC(Oc2cc(F)cc(F)c2)CN1c1c(Cl)csc1Cl (stereo not drawn), CNc1ccc(Cl)c(N2CC(Cc3ccc(F)cc3F)CN(C)C2=O)c1Cl (stereo not drawn), O=C1CSC(Cc2ccc3ccccc3c2)CN1c1c(Cl)cccc1Cl (stereo not drawn), O=C1CCC(Sc2ccc(Cl)cc2Cl)CN1c1c(Cl)csc1Cl (stereo not drawn), Cc1cc(C(=O)N2CCN(C)CC2)cc(C)c1N1CC(Cc2ccc(F)cc2F)CCC1=O (stereo not drawn), O=C1CCC(Sc2cccc3ccccc23)CN1c1c(Cl)ccnc1Cl (stereo not drawn), CC(=O)Nc1sc(Cl)c(N2CC(Oc3ccc(F)cc3F)CCC2=O)c1Cl (stereo not drawn), O=C(Cc1ccccc1)Nc1cc(Cl)c(N2CC(Sc3ccc(F)cc3F)CCC2=O)c(Cl)c1 (stereo not drawn), O=C(Cc1ccccc1)Nc1ccc(Cl)c(N2CC(Cc3ccc(F)cc3F)CNC2=O)c1Cl (stereo not drawn), O=C1CCC(Cc2ccc(F)cc2F)CN1C1C(Cl)CCC(CO)C1Cl (stereo not drawn), CC(=O)Nc1cc(Cl)c(N2CC(Oc3ccc(F)cc3F)CCC2=O)c(Cl)n1 (stereo not drawn), O=C(Cc1ccccc1)Nc1cc(Cl)c(N2CC(Cc3ccc(F)cc3F)CNC2=O)c(Cl)c1 (stereo not drawn), O=C1COC(Cc2ccccc2F)CN1c1c(Cl)cccc1Cl (stereo not drawn), CC(C)(C)OC(=O)Nc1cc(Cl)c(N2CC(Cc3ccccc3F)CCC2=O)c(Cl)c1 (stereo not drawn), O=C1CC[C@H](Cc2ccc(F)cc2F)CN1c1c(Cl)cccc1Cl, O=C1CCC(Cc2ccc(F)cc2F)CN1c1c(Cl)cc(CO)cc1Cl (stereo not drawn), C[C@@H]1C[C@H](Cc2ccc(F)cc2F)CN(c2c(Cl)cc([N+](=O)[O-])cc2Cl)C1=O, Cc1cc(C#CCCCO)cc(C)c1N1CC(Cc2ccc(F)cc2F)CCC1=O (stereo not drawn), O=C1CCC(Sc2ccc(F)cc2F)CN1c1c(Cl)csc1Cl (stereo not drawn), CNc1cc(Cl)c(N2CC(Cc3ccc(F)cc3F)CCC2=O)c(Cl)n1 (stereo not drawn), O=C1CCC(Cc2ccc(F)cc2F)CN1c1c(Cl)sc(CO)c1Cl (stereo not drawn), O=C1SCC(Cc2ccc(F)cc2F)CN1c1c(Cl)ccc(CO)c1Cl (stereo not drawn), O=C1COC(Cc2ccc3ccccc3c2)CN1c1c(Cl)cccc1Cl (stereo not drawn), Cc1cccc(C)c1N1CC(Cc2ccccc2Br)CCC1=O (stereo not drawn), Cc1ccc(CC2CCC(=O)N(C3C(Cl)CCCC3Cl)C2)cc1 (stereo not drawn), O=C1CCC(Oc2ccc(Cl)cc2Cl)CN1c1c(Cl)csc1Cl (stereo not drawn), O=C1CCC(Cc2cccc3ccccc23)CN1c1c(Cl)ccnc1Cl (stereo not drawn), CS(=O)(=O)Nc1ccc(Cl)c(N2CC(Cc3ccc(F)cc3F)CCC2=O)c1 (stereo not drawn), Cc1cc(CCCCN(C)C)cc(C)c1N1CC(Cc2ccc(F)cc2F)CCC1=O (stereo not drawn), CC(C)(C)OC(=O)N(CCO)c1cc(Cl)c(N2CC(Cc3ccc(F)cc3F)CCC2=O)c(Cl)c1 (stereo not drawn), O=C1CSC(Cc2ccccc2)CN1c1c(Cl)cccc1Cl (stereo not drawn), O=C(Cc1ccccc1)Nc1ncc(Cl)c(N2CC(Cc3ccc(F)cc3F)CCC2=O)c1Cl (stereo not drawn), COC(=O)c1ccccc1CC1CCC(=O)N(c2c(C)cccc2C)C1 (stereo not drawn), COc1ccc(SC2CCC(=O)N(c3c(Cl)cccc3Cl)C2)cc1 (stereo not drawn), COc1ccccc1CC1CNC(=O)N(c2c(Cl)cccc2Cl)C1 (stereo not drawn), COc1ccccc1OC1CCC(=O)N(c2c(Cl)ccnc2Cl)C1 (stereo not drawn), O=C1CCC(Cc2ccc3ccccc3c2)CN1c1c(Cl)cccc1Cl (stereo not drawn), Cc1cc(C)cc(CC2CSC(=O)N(c3c(Cl)cccc3Cl)C2)c1 (stereo not drawn), N[C@@H](CO)C(=O)Nc1cc(Cl)c(N2CC(Cc3ccc(F)cc3F)CCC2=O)c(Cl)c1 (stereo partly drawn), O=C1CCC(Oc2cc(Cl)cc(Cl)c2)CN1c1c(Cl)cccc1Cl (stereo not drawn), O=C(CNc1cc(Cl)c(N2CC(Cc3ccc(F)cc3F)CCC2=O)c(Cl)c1)NO (stereo not drawn), O=C1CSC(Cc2ccc(F)cc2F)CN1c1c(Cl)cccc1Cl (stereo not drawn), CC1(C)NC(=O)N(CCNc2cc(Cl)c(N3CC(Cc4ccc(F)cc4F)CCC3=O)c(Cl)c2)C1=O (stereo not drawn), O=C1CSC(Cc2ccc(F)cc2F)CN1c1c(Cl)ccc(O)c1Cl (stereo not drawn), O=C1NCC(Cc2ccc(Cl)cc2Cl)CN1c1c(Cl)cccc1Cl (stereo not drawn), O=C(Cc1ccccc1)Nc1ccc(Cl)c(N2CC(Sc3ccc(F)cc3F)CCC2=O)c1Cl (stereo not drawn), Cc1cccc(C)c1N1CC(Cc2ccccc2OCC(=O)Nc2cc(C(C)(C)C)nn2C)CCC1=O (stereo not drawn), O=C(Nc1ccc(CC2CCC(=O)N(c3c(Cl)cccc3Cl)C2)cc1)C1CCCCC1 (stereo not drawn), O=C1CCC(Cc2ccc([N+](=O)[O-])cc2)CN1c1c(Cl)cccc1Cl (stereo not drawn), O=C1CCC(Cc2cccc3ccccc23)CN1c1c(Cl)cncc1Cl (stereo not drawn), CCOC(=O)CCCNC(=O)c1cc(C)c(N2CC(Cc3ccc(F)cc3F)CCC2=O)c(C)c1 (stereo not drawn), COc1ccccc1SC1CCC(=O)N(c2c(Cl)cccc2Cl)C1 (stereo not drawn), O=C1CCC(Cc2ccc(Cl)cc2Cl)CN1C1C(Cl)CCCC1Cl (stereo not drawn), O=C1CCC(Oc2ccc(F)cc2F)CN1C1C(Cl)CC(CO)CC1Cl (stereo not drawn), O=C1CCC(Cc2ccccc2F)CN1c1c(Cl)cncc1Cl (stereo not drawn), CNc1ccc(Cl)c(N2CC(Cc3ccc(F)cc3F)CCC2=O)c1Cl (stereo not drawn), O=C1CCC(Cc2ccc(Cl)cc2)CN1c1c(Cl)cncc1Cl (stereo not drawn), Cc1cc(C(=O)O)cc(C)c1N1CC(Cc2ccc(F)cc2F)CNC1=O (stereo not drawn), O=C1CCC(Oc2ccc(F)cc2)CN1c1c(Cl)csc1Cl (stereo not drawn), O=C1CCC(Sc2ccccc2)CN1c1c(Cl)csc1Cl (stereo not drawn), O=C1NCC(Cc2ccc(F)cc2F)CN1c1c(Cl)ccc(CO)c1Cl (stereo not drawn), O=C1CCC(Sc2ccc(F)cc2F)CN1c1c(Cl)ccc(CO)c1Cl (stereo not drawn), O=C1CCC(Sc2ccc(Cl)cc2Cl)CN1C1C(Cl)CCCC1Cl (stereo not drawn), COc1ccccc1OC1CCC(=O)N(c2c(Cl)cccc2Cl)C1 (stereo not drawn), O=C1CCC(Sc2ccc(F)cc2F)CN1c1c(Cl)cnc(O)c1Cl (stereo not drawn), O=C(Cc1ccccc1)NC1CCC(Cl)C(N2CC(Oc3ccc(F)cc3F)CCC2=O)C1Cl (stereo not drawn), O=C1CCC(Oc2ccccc2Cl)CN1C1C(Cl)CCCC1Cl (stereo not drawn), Nc1ccc(N2CC(Cc3ccc(F)cc3F)CCC2=O)c(Cl)c1 (stereo not drawn), Cc1ccccc1CC1CN(c2c(Cl)cccc2Cl)C(=O)CO1 (stereo not drawn), O=C1CCC(Sc2ccc(F)cc2F)CN1c1c(Cl)cc(CO)cc1Cl (stereo not drawn), Cc1ccc(CC2CSC(=O)N(c3c(Cl)cccc3Cl)C2)cc1 (stereo not drawn), O=C1CNC(Cc2ccc(F)cc2F)CN1c1c(Cl)cccc1Cl (stereo not drawn), O=C1SCC(Cc2ccc(F)cc2F)CN1c1c(Cl)cccc1Cl (stereo not drawn), CN(C)NC(=O)CNc1cc(Cl)c(N2CC(Cc3ccc(F)cc3F)CCC2=O)c(Cl)c1 (stereo not drawn), CC(C)(C)OC(=O)Nc1ccc(N2CC(Cc3ccc(F)cc3F)CCC2=O)c(Cl)c1 (stereo not drawn), Nc1cc(Cl)c(N2CC(Cc3ccc(F)cc3F)SCC2=O)c(Cl)c1 (stereo not drawn), Cc1cc(C(=O)NCCCC(=O)O)cc(C)c1N1CC(Cc2ccc(F)cc2F)CCC1=O (stereo not drawn), O=C1CCC(Cc2ccccc2Cl)CN1C1C(Cl)CCCC1Cl (stereo not drawn), O=C1NCC(Cc2ccc3ccccc3c2)CN1c1c(Cl)cccc1Cl (stereo not drawn), Cc1ccccc1SC1CCC(=O)N(c2c(Cl)cncc2Cl)C1 (stereo not drawn), COCCOCOc1ccccc1CC1CCC(=O)N(c2c(C)cccc2C)C1 (stereo not drawn), Nc1sc(Cl)c(N2CC(Cc3ccc(F)cc3F)CCC2=O)c1Cl (stereo not drawn), CC(=O)Nc1ccc(CC2CCC(=O)N(c3c(Cl)cccc3Cl)C2)cc1 (stereo not drawn), O=C1CCC(Cc2ccccc2)CN1c1c(F)cccc1F (stereo not drawn), CN(C)Cc1cc(Cl)c(N2CC(Cc3ccc(F)cc3F)CCC2=O)c(Cl)c1 (stereo not drawn), O=C1CCC(Cc2ccc(F)cc2F)CN1c1c(Cl)cc(NC2CCNCC2)cc1Cl (stereo not drawn), O=C1COC(Cc2cccc3ccccc23)CN1c1c(Cl)cccc1Cl (stereo not drawn)
